Source: the supplement of paper PMC4862054

How the values were obtained:
Settings in all cases: incubation time: 72 h
MDA-MB-468 [1] = assay: normalised response (% of control), CellTox Green; higher = less cell death (100 = DMSO, 0 = benzethonium chloride kill control)
Summary of the method: (§1)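 Breast cancer cell lines, seeded at 20 µl suspension per well, were incubated for 72 h in 384-well plates containing compound at 5 concentrations. These concentrations rose in 10-fold steps over a 10,000-fold range set for each compound. CellTox Green fluorescence (485/520 nm) was read, then CellTiter-Glo luminescence after 10 min at room temperature, and each plate was normalised to 0.1 % DMSO (100) and a positive kill control (0). Values are normalised signals, each at one concentration.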

MFM-223 [2] = assay: as above
Summary of the method: as §1

HCC1143 [3] = assay: as above
Summary of the method: as §1

CAL-85-1 [4] = assay: as above
Summary of the method: as §1

CAL-120 [5] = assay: as above
Summary of the method: as §1

CAL-51 [6] = assay: as above
Summary of the method: as §1

CAL-148 [7] = assay: as above
Summary of the method: as §1

Hs578T [8] = assay: as above
Summary of the method: as §1

HCC1599 [9] = assay: as above
Summary of the method: as §1

MDA-MB-436 [10] = assay: as above
Summary of the method: as §1

MCF-10A [11] = assay: as above
Summary of the method: as §1

MDA-MB-453 [12] = assay: as above
Summary of the method: as §1

BT-549 [13] = assay: as above
Summary of the method: as §1

MDA-MB-231 [14] = assay: as above
Summary of the method: as §1

DU-4475 [15] = assay: as above
Summary of the method: as §1

HCC1937 [16] = assay: as above
Summary of the method: as §1

BT-474 [17] = assay: as above
Summary of the method: as §1

MDA-MB-468 [18] = assay: normalised response (% of control), CellTiter-Glo; higher = more viable cells (100 = DMSO, 0 = benzethonium chloride kill control)
Experimental: (§2)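 DSRT, 72 h incubation, CellTox Green / CellTiter-Glo readout. Signal is normalised to DMSO and benzethonium chloride controls. Value is the normalised response at dose 3.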

MFM-223 [19] = assay: as above
Experimental: as §2

HCC1143 [20] = assay: as above
Experimental: as §2

CAL-85-1 [21] = assay: as above
Experimental: as §2

HDQ-P1 [22] = assay: as above
Experimental: as §2

CAL-120 [23] = assay: as above
Experimental: as §2

CAL-51 [24] = assay: as above
Experimental: as §2

CAL-148 [25] = assay: as above
Experimental: as §2

Hs578T [26] = assay: as above
Experimental: as §2

HCC1599 [27] = assay: as above
Experimental: as §2

MDA-MB-436 [28] = assay: as above
Experimental: as §2

MCF-10A [29] = assay: as above
Experimental: as §2

MDA-MB-453 [30] = assay: as above
Experimental: as §2

BT-549 [31] = assay: as above
Experimental: as §2

MDA-MB-231 [32] = assay: as above
Experimental: as §2

DU-4475 [33] = assay: as above
Experimental: as §2

HCC1937 [34] = assay: as above
Experimental: as §2

SK-BR-3 = assay: as above
Experimental: as §2

BT-474 [35] = assay: as above
Experimental: as §2

HDQ-P1 [36] = assay: normalised response (% of control), CellTox Green; higher = less cell death (100 = DMSO, 0 = benzethonium chloride kill control)
Summary of the method: as §1

SMILES	normalised response (MDA-MB-468 [1]) [%]	normalised response (MFM-223 [2]) [%]	normalised response (HCC1143 [3]) [%]	normalised response (CAL-85-1 [4]) [%]	normalised response (CAL-120 [5]) [%]	normalised response (CAL-51 [6]) [%]	normalised response (CAL-148 [7]) [%]	normalised response (Hs578T [8]) [%]	normalised response (HCC1599 [9]) [%]	normalised response (MDA-MB-436 [10]) [%]	normalised response (MCF-10A [11]) [%]	normalised response (MDA-MB-453 [12]) [%]	normalised response (BT-549 [13]) [%]	normalised response (MDA-MB-231 [14]) [%]	normalised response (DU-4475 [15]) [%]	normalised response (HCC1937 [16]) [%]	normalised response (BT-474 [17]) [%]	normalised response (MDA-MB-468 [18]) [%]	normalised response (MFM-223 [19]) [%]	normalised response (HCC1143 [20]) [%]	normalised response (CAL-85-1 [21]) [%]	normalised response (HDQ-P1 [22]) [%]	normalised response (CAL-120 [23]) [%]	normalised response (CAL-51 [24]) [%]	normalised response (CAL-148 [25]) [%]	normalised response (Hs578T [26]) [%]	normalised response (HCC1599 [27]) [%]	normalised response (MDA-MB-436 [28]) [%]	normalised response (MCF-10A [29]) [%]	normalised response (MDA-MB-453 [30]) [%]	normalised response (BT-549 [31]) [%]	normalised response (MDA-MB-231 [32]) [%]	normalised response (DU-4475 [33]) [%]	normalised response (HCC1937 [34]) [%]	normalised response (SK-BR-3) [%]	normalised response (BT-474 [35]) [%]	normalised response (HDQ-P1 [36]) [%]
Oc1ncc(N(CCCl)CCCl)c(O)n1 [Uracil mustard] (100 nM)	154	102	113	114	106	109	103	111	102	109	114	110	111	118	108	88	104	94.6	104	100	96.7	104	103	110	100	102	95.5	98.9	101	95.5	105	100	99.1	98	101	106	–
CC1=C(/C=C/C(C)=C/C=C/C(C)=C/C(=O)O)C(C)(C)CCC1 [Tretinoin] (100 nM)	159	103	96.3	102	101	102	95.3	–	99.1	106	105	109	115	117	108	92.8	103	92	93.7	97.4	97.5	100	105	87.7	91.9	98.5	103	100	88.7	108	102	102	98.3	95.8	79.8	92.7	108
COc1cc2nccc(Oc3ccc(NC(=O)Nc4cc(C)on4)c(Cl)c3)c2cc1OC [Tivozanib] (100 nM)	110	103	89	98.6	96.9	108	102	–	104	–	96.3	97.2	109	94.9	96.9	117	96	93.6	86.1	102	99.5	104	94.2	99.6	88.5	93.7	102	91.2	94.5	87.7	106	96.2	98.1	95.1	83.3	93	94.8
CCc1cncnc1N1CCN(Cc2nc3ccc(C(F)(F)F)cc3[nH]2)CC1 (100 nM)	108	106	118	99.3	96	86.3	108	–	99.1	99.8	86.4	87.5	83.3	105	101	–	97.9	106	110	107	95.8	97.7	109	88.2	116	109	99.9	108	108	106	92.9	110	106	98.6	107	105	96
COc1cc([C@@H]2c3cc4c(cc3[C@@H](O[C@@H]3O[C@@H]5CO[C@@H](c6cccs6)O[C@H]5[C@H](O)[C@H]3O)[C@H]3COC(=O)[C@H]23)OCO4)cc(OC)c1O [Teniposide] (100 nM)	54.9	99.3	111	89.4	96	74.2	36.3	–	91.3	95.1	83.6	107	90.5	103	93.6	–	99.7	79.3	108	83.2	91.6	96.4	94.7	78.5	74.5	90	66.7	62.6	88.2	118	68	94.3	69.2	91.9	58.5	87.8	102
